This is an account of results in patent publication US20250255792A1, “Methods of Using a Small Molecule Chemical Compound to Reduce the Appearance of Rhytids and Wrinkles” (BirchBioMed Inc., priority 2022, published 2025).

For experiment [1], the target named is T1, aryl hydrocarbon receptor (AhR) (Homo sapiens, UniProt P35869).
T1 sequence (P35869 11-848): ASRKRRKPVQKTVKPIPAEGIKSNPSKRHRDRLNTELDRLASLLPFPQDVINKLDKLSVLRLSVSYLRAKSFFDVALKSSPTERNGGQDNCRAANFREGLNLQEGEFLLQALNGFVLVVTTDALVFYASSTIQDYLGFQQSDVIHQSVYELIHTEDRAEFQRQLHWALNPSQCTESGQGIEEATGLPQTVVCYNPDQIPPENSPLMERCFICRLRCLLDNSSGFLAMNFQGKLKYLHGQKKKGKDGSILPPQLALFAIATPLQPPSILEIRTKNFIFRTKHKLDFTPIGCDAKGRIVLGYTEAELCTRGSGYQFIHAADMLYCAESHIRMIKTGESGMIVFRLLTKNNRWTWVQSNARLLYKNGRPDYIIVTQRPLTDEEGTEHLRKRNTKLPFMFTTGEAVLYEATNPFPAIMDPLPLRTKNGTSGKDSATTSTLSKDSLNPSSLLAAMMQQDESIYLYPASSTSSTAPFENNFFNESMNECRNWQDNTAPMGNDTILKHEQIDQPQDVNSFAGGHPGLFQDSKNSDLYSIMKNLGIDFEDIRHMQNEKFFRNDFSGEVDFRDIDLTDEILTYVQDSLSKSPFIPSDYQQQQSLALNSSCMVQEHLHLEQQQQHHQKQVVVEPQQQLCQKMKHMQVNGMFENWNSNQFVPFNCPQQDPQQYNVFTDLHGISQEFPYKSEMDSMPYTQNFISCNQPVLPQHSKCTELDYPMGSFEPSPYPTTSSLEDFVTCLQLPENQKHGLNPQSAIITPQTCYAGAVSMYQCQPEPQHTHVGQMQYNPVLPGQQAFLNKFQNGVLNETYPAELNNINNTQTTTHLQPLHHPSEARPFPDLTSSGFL
To be noted: cited from earlier work.

In another experiment the test system is collagen 1. To be noted: dermal fibroblasts; cited from earlier work.
For experiment [2], the system named is rabbit ear hypertrophic scarring model. To be noted: topical application to skin tissue; cited from earlier work.
For another experiment, the system named is MMP-1. To be noted: dermal fibroblasts; cited from earlier work.
The test system of experiment [3] is UVB-induced wrinkle formation. To be noted: animal model (Kim, 2022); cited from earlier work.
The next experiment has as its system fibronectin. As to conditions: dermal fibroblasts; cited from earlier work.
Experiment [4] has as its system rhytids and wrinkles on the face. Nature of the experiment: Topical use of 0.5% kynurenic acid cream on facial rhytids and wrinkles (self-reported, visual inspection). It is filed as in vivo, human. As to conditions: person, approx. 3 mg per application.
Description: (§1) Initial dermatological effects can be followed by visual inspection of the site.
as §1

The subject of another experiment is MMP-3. As to conditions: dermal fibroblasts; cited from earlier work.

Entries after “also recorded” stand apart in the source; their conditions may differ.

Take `Nc1ccccc1C(=O)CC(N)C(=O)O` (racemic) [kynurenine]: the “AhR agonist / antagonist activity” value in experiment [1] is listed as “AhR agonists”. Moreover, the “collagen 1 expression” value in the experiment with collagen 1 is on record as “suppress collagen production”. Further, in experiment [2], the “MMP-1 relative to controls” value is “increased” and the “collagen relative to controls” value is reported as “decreased”. In the experiment on MMP-1, the MMP-1 expression entry was “increase MMP production”.
As for `Nc1nc2ncc(CNc3ccc(C(=O)N[C@@H](CCC(=O)O)C(=O)O)cc3)nc2c(=O)[nH]1` [folic acid], in experiment [1], the “AhR agonist / antagonist activity” value is on record as “AhR antagonists”. In addition, in experiment [3], the UVB-induced wrinkle formation entry was “helped reduce; also recorded: ameliorated”.
Consider `O=C(O)c1cc(=O)c2ccccc2[nH]1` [kynurenic acid], for which the “collagen 1 expression” value in the experiment on collagen 1 was “downregulate; also recorded: suppress collagen production”. For the same compound, the fibronectin expression entry in the experiment on fibronectin was “downregulate”. For the same compound, the “visibility of rhytids and wrinkles (user-reported)” value in experiment [4] (topical cream 0.5% kynurenic acid by weight once a day, approx. 80 micrograms per square cm, after a 2-month period) is “less visible and less noticeable”. Further, the “appearance and visibility of rhytids and wrinkles (subject-reported)” value in experiment [4] (topical cream 0.5% kynurenic acid by weight twice daily, approx. 60 micrograms per square cm, approx. two-month period) is “perceptible and noticeable reduction”. The MMP-3 expression entry with MMP-3 is “increase expression; also recorded: upregulate”. Further, the MMP-1 expression entry in the experiment on MMP-1 is “increase expression; also recorded: increase MMP production; also recorded: upregulate”.
For vitamin B12, the “AhR agonist / antagonist activity” value in experiment [1] is “AhR antagonists”. Also, the UVB-induced wrinkle formation entry in experiment [3] is recorded as “helped reduce; also recorded: ameliorated”.
